Measured values: patent US4631274A, “Halovinyl cephem compounds” (Fujisawa Pharmceutical Co., Ltd., priority 1984, dated 1986)

Columns and labels:
Proteus mirabilis 18 = test: In vitro antibacterial activity, two-fold agar-plate dilution method (MIC); format: cell-based; conditions: HI-agar, 37° C., 20 hours, read-out: MIC (minimal inhibitory concentration)
Procedure: (§1) In vitro antibacterial activity was determined by the two-fold agar-plate dilution method as described below.
(§2) One loopful of an overnight culture of each test strain in Trypticase-soy broth (10^8 viable cells per ml) was streaked on heart infusion agar (HI-agar) containing graded concentrations of representative test compound, and the minimal inhibitory concentration (MIC) was expressed in terms of μg/ml after incubation at 37° C. for 20 hours.

Proteus vulgaris 2 = test: as above; format: cell-based; conditions: HI-agar, 37° C., 20 hours, read-out: MIC (minimal inhibitory concentration)
Procedure: as §1, §2

in vivo = conditions: rat, po, 20 mg/kg
Procedure: Rats anesthetized with pentobarbital were fixed in supine position, and a polyethylene cannula was inserted into the bile duct. Bile samples were collected at 0 to 3, 3 to 6, and 6 to 24 hours after oral administration of 20 mg/kg of the test antibiotic. The antibiotic levels in the bile samples were bioassayed with the standard solution prepared with M/15 phosphate buffer (pH 7.0) and the biliary recovery in 24 hours were calculated.

[1] = Urinary excretion in rats after oral administration; format: in vivo; conditions: rat, urine, 20 mg/kg, bioassay, read-out: Urinary recovery in 24 hours (%)
Procedure: Urine of rats was collected with a urine collector at 0 to 6, and 6 to 24 hours after oral administration of 20 mg/kg of the test antibiotic. The antibiotic levels in the urine samples were bioassayed with the standard solution prepared with M/15 phosphate buffer (pH 7.0) and the urinary recovery in 24 hours was calculated.

For `Nc1nc(/C(=N/OCC(=O)O)C(=O)NC2C(=O)N3C(C(=O)O)=C(/C=C/Cl)CSC23)cs1` (stereo not drawn) [A, 7-[2-Carboxymethoxyimino-2-(2-aminothiazol-4-yl)acetamido]-3-[(E)-2-chlorovinyl]-3-cephem-4-carboxylic acid (syn isomer)], the MIC (Proteus mirabilis 18) was < 0.025 µg/mL, the MIC (Proteus vulgaris 2) was < 0.025 µg/mL and the dose excreted at 24 h (in vivo) was 24.2%. It also gave a dose excreted at 24 h [1] of 51.1%.
